Reference: ChEMBL document CHEMBL1201862, “PubChem BioAssay data set” (2004)
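Test compounds were applied to cells in 96-well plates for 48 hours at 5 doses. GI50 is the concentration that inhibits growth by half.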 Activity calls are given as the source filed them. Rule as the data show it: active = GI50 up to about 1.1 µM and inactive = higher.

Key:
Assay in all cases: NCI tumour cell line growth inhibition, 48 h
A549 = system: A549
BT-549 = system: BT-549
CCRF-CEM = system: CCRF-CEM
EKVX = system: EKVX
HCC 2998 = system: HCC 2998
HL-60 = system: HL-60
IGROV-1 = system: IGROV-1
K562 = system: K562
NCI/ADR-RES = system: NCI/ADR-RES
OVCAR-3 = system: OVCAR-3
OVCAR-8 = system: OVCAR-8
PC-3 = system: PC-3
SK-MEL-28 = system: SK-MEL-28
SN12C = system: SN12C
SNB-75 = system: SNB-75
SR = system: SR

| Structure (SMILES) | GI50 (A549) | GI50 (BT-549) | GI50 (CCRF-CEM) | GI50 (EKVX) | GI50 (HCC 2998) | GI50 (HL-60) | GI50 (IGROV-1) | GI50 (K562) | GI50 (NCI/ADR-RES) | GI50 (OVCAR-3) | GI50 (OVCAR-8) | GI50 (PC-3) | GI50 (SK-MEL-28) | GI50 (SN12C) | GI50 (SNB-75) | GI50 (SR) |
| --- | --- | --- | --- | --- | --- | --- | --- | --- | --- | --- | --- | --- | --- | --- | --- | --- |
| CC(=O)OCC1(C)C(O)CCC2(C)C1CCC1CC3CC12CCC3(O)CO (stereo not drawn) | 55.1 µM (inactive) | > 86.3 µM (inactive) | 9.77 µM (inactive) | > 100 µM (inactive) | 20.8 µM (inactive) | 6.35 µM (inactive) | > 47 µM (inactive) | > 100 µM (inactive) | 37.7 µM (inactive) | > 100 µM (inactive) | 44.1 µM (inactive) | > 91 µM (inactive) | > 100 µM (inactive) | > 100 µM (inactive) | > 100 µM (inactive) | 4.42 µM (inactive) |
| CCC1(O)C(=O)OCc2c1cc1n(c2=O)Cc2cc3cc(N)ccc3nc2-1 (stereo not drawn) | 0.0103 µM (active) | < 0.01 µM (active) | < 0.01 µM (active) | 0.855 µM (active) | 0.0345 µM (active) | < 0.01 µM (active) | 0.109 µM (active) | < 0.0127 µM (active) | < 0.01 µM (active) | 0.0466 µM (active) | < 0.0128 µM (active) | 0.0702 µM (active) | – | < 0.01 µM (active) | < 0.01 µM (active) | < 0.01 µM (active) |
| C[N+](C)(C)CCN[N+]1(C)CCCc2ccccc21 (stereo not drawn) | > 100 µM (inactive) | > 100 µM (inactive) | – | > 100 µM (inactive) | > 100 µM (inactive) | 0.67 µM (active) | > 100 µM (inactive) | 39 µM (inactive) | > 100 µM (inactive) | > 100 µM (inactive) | > 100 µM (inactive) | > 100 µM (inactive) | > 100 µM (inactive) | > 100 µM (inactive) | > 100 µM (inactive) | 50.2 µM (inactive) |
| C[C@]12C(=O)OC[C@H](c3ccccc3)N1C(=O)N(Cc1ccccc1)[C@@H]2CO | > 100 µM (inactive) | > 100 µM (inactive) | > 100 µM (inactive) | > 100 µM (inactive) | > 100 µM (inactive) | > 100 µM (inactive) | > 100 µM (inactive) | > 100 µM (inactive) | > 100 µM (inactive) | > 100 µM (inactive) | > 100 µM (inactive) | > 100 µM (inactive) | > 100 µM (inactive) | > 100 µM (inactive) | 45.6 µM (inactive) | > 100 µM (inactive) |
| COc1ncnc2c1cnn2Cc1cn(COCC(O)CO)nn1 (stereo not drawn) | > 100 µM (inactive) | > 100 µM (inactive) | > 100 µM (inactive) | > 100 µM (inactive) | > 100 µM (inactive) | > 100 µM (inactive) | > 100 µM (inactive) | > 100 µM (inactive) | > 100 µM (inactive) | > 100 µM (inactive) | > 100 µM (inactive) | > 100 µM (inactive) | > 100 µM (inactive) | > 100 µM (inactive) | – | > 100 µM (inactive) |
| COC(=O)C1=COc2c(n(C)c3ccccc23)-c2ccccc21 | – | > 100 µM (inactive) | > 100 µM (inactive) | > 100 µM (inactive) | – | > 100 µM (inactive) | 20.2 µM (inactive) | > 100 µM (inactive) | > 100 µM (inactive) | > 100 µM (inactive) | > 100 µM (inactive) | > 100 µM (inactive) | – | > 100 µM (inactive) | 27.6 µM (inactive) | 4.21 µM (inactive) |
| OC(c1cc2ccc(C(F)(F)F)cc2c2cc(C(F)(F)F)ccc12)C1CCCCN1 (stereo not drawn) | 1.8 µM (inactive) | 1.92 µM (inactive) | 1.78 µM (inactive) | 0.428 µM (active) | 1.3 µM (inactive) | 31.4 µM (inactive) | 1.74 µM (inactive) | 1.55 µM (inactive) | 1.82 µM (inactive) | 1.63 µM (inactive) | – | 1.58 µM (inactive) | 1.91 µM (inactive) | 1.74 µM (inactive) | 1.29 µM (inactive) | 2.38 µM (inactive) |
| Clc1cc(Cl)c2cc3cccc[n+]3cc2c1Cl | 17.2 µM (inactive) | 6.76 µM (inactive) | 12.1 µM (inactive) | 13.8 µM (inactive) | 17.1 µM (inactive) | 12.7 µM (inactive) | – | 19 µM (inactive) | 18.3 µM (inactive) | 12.1 µM (inactive) | 15.1 µM (inactive) | 14 µM (inactive) | 15.5 µM (inactive) | 17.9 µM (inactive) | 12 µM (inactive) | 12.2 µM (inactive) |
| COc1c(O)cc2c3c(ccnc13)NC=C2 | > 100 µM (inactive) | > 100 µM (inactive) | 4.78 µM (inactive) | > 100 µM (inactive) | > 100 µM (inactive) | 11.4 µM (inactive) | > 100 µM (inactive) | 96.6 µM (inactive) | > 100 µM (inactive) | 12.4 µM (inactive) | > 100 µM (inactive) | 24.3 µM (inactive) | > 100 µM (inactive) | > 100 µM (inactive) | – | 17.3 µM (inactive) |
| CC(C)(C)/C(=N\Nc1nc2ccccc2[nH]1)c1ccccn1 | > 100 µM (inactive) | > 100 µM (inactive) | 46.1 µM (inactive) | – | – | – | 80.7 µM (inactive) | 99.8 µM (inactive) | 65.3 µM (inactive) | 24.3 µM (inactive) | > 100 µM (inactive) | 81.5 µM (inactive) | > 100 µM (inactive) | > 100 µM (inactive) | – | > 100 µM (inactive) |
| CC1CCC(C(C)C)C(OC(=O)NCn2cc(-c3ccccc3)nn2)C1 (stereo not drawn) | > 100 µM (inactive) | > 100 µM (inactive) | > 100 µM (inactive) | > 100 µM (inactive) | 85.1 µM (inactive) | > 100 µM (inactive) | > 100 µM (inactive) | > 100 µM (inactive) | > 100 µM (inactive) | – | 75.5 µM (inactive) | > 100 µM (inactive) | > 100 µM (inactive) | > 100 µM (inactive) | 25.6 µM (inactive) | > 100 µM (inactive) |
| N#C/C(=C\c1cn(Cc2ccccc2)c2ccccc12)c1nn(-c2ccccc2)c(N)c1C#N | 11.2 µM (inactive) | 22.3 µM (inactive) | 19.1 µM (inactive) | 8.07 µM (inactive) | – | 41.5 µM (inactive) | 12.8 µM (inactive) | 24.3 µM (inactive) | 17.4 µM (inactive) | 18.2 µM (inactive) | 10.1 µM (inactive) | 8.22 µM (inactive) | 27.7 µM (inactive) | 15.3 µM (inactive) | 4.07 µM (inactive) | 24.7 µM (inactive) |
| c1ccc(Cc2cccc3cc(-c4ccc(-c5ccccc5)cc4)[nH]c23)cc1 | 76.7 µM (inactive) | > 100 µM (inactive) | 30.1 µM (inactive) | > 100 µM (inactive) | 95.1 µM (inactive) | > 100 µM (inactive) | > 100 µM (inactive) | – | > 100 µM (inactive) | > 100 µM (inactive) | 45.8 µM (inactive) | 61.9 µM (inactive) | > 100 µM (inactive) | 96.6 µM (inactive) | 22.5 µM (inactive) | 16.9 µM (inactive) |
| Nc1ncnc2ccc(Sc3ccc4ncnc(N)c4c3)cc12 | > 100 µM (inactive) | > 100 µM (inactive) | > 100 µM (inactive) | > 100 µM (inactive) | – | > 100 µM (inactive) | > 100 µM (inactive) | > 100 µM (inactive) | > 100 µM (inactive) | > 100 µM (inactive) | > 100 µM (inactive) | > 100 µM (inactive) | > 100 µM (inactive) | > 100 µM (inactive) | > 100 µM (inactive) | > 100 µM (inactive) |
| OCc1ccccc1O[C@H]1O[C@H](CO)[C@@H](O)[C@H](O)[C@H]1O | > 100 µM (inactive) | > 100 µM (inactive) | > 100 µM (inactive) | > 100 µM (inactive) | > 100 µM (inactive) | > 100 µM (inactive) | > 100 µM (inactive) | – | > 100 µM (inactive) | > 100 µM (inactive) | > 100 µM (inactive) | > 100 µM (inactive) | > 100 µM (inactive) | > 100 µM (inactive) | > 100 µM (inactive) | > 10 µM (inactive) |
| COc1ccc(N2C(=O)/C(=C\c3cccc(Oc4ccccc4)c3)S(=O)(=O)C2c2ccccc2)cc1 (stereo not drawn) | 31.5 µM (inactive) | 25.6 µM (inactive) | 73.6 µM (inactive) | 15.7 µM (inactive) | > 100 µM (inactive) | 7.24 µM (inactive) | – | 16.4 µM (inactive) | 16.2 µM (inactive) | 28.1 µM (inactive) | – | 56 µM (inactive) | > 100 µM (inactive) | 66.4 µM (inactive) | – | 3.7 µM (inactive) |
| CCC1c2[nH]c3ccccc3c2C[C@H]2C(=O)NC(Cc3ccccc3)C(=O)N12 (stereo partly drawn) | 30.1 µM (inactive) | 22.4 µM (inactive) | – | 30.3 µM (inactive) | 26 µM (inactive) | 20.7 µM (inactive) | 28.8 µM (inactive) | 31.4 µM (inactive) | 29.8 µM (inactive) | 31 µM (inactive) | 34.5 µM (inactive) | 20.8 µM (inactive) | 40 µM (inactive) | 28.5 µM (inactive) | – | 21.2 µM (inactive) |
| O=C(CN1C(=O)c2ccccc2C1=O)C(O)CN1C(=O)c2ccccc2C1=O (stereo not drawn) | > 100 µM (inactive) | 48.1 µM (inactive) | – | 76.2 µM (inactive) | > 100 µM (inactive) | 44.7 µM (inactive) | 43.7 µM (inactive) | – | > 100 µM (inactive) | > 100 µM (inactive) | 46.5 µM (inactive) | > 100 µM (inactive) | > 100 µM (inactive) | 53.5 µM (inactive) | 16 µM (inactive) | > 100 µM (inactive) |
| O=C(CSC1=NC(=O)C2(NN1)c1ccccc1-c1ccccc12)NC(=S)Nc1ccccc1 | > 10 µM (inactive) | > 10 µM (inactive) | > 10 µM (inactive) | 4.04 µM (inactive) | > 10 µM (inactive) | > 10 µM (inactive) | > 10 µM (inactive) | > 10 µM (inactive) | 7.76 µM (inactive) | – | > 10 µM (inactive) | > 10 µM (inactive) | > 10 µM (inactive) | > 10 µM (inactive) | > 10 µM (inactive) | 6.03 µM (inactive) |
